Results taken from ChEMBL document CHEMBL6178013, “Ferroptosis of Cancer Cells via Tubulin Degradation and Mitochondrial Dysfunction: A Novel Mechanism of Anticancer Effect for Small-Molecule Anion Transporters” (J Med Chem, 2025).
Values after ≈ are worked out from the molar mass of the structure shown. Active and inactive are the calls of the source. No cut-off for these calls is given here.

Legend:
[1] = system: Chloride; experiment: Binding affinity to chloride anions assessed as chloride efflux in egg-yolk L-alpha-phosphatidylcholine liposome model harboring intravesicular KCl/extravesicular NaNO3
[2] = system: Chloride; experiment: Binding affinity to chloride anions assessed as chloride efflux in egg-yolk L-alpha-phosphatidylcholine liposome model harboring intravesicular RbCl/extravesicular NaNO3
[3] = system: Chloride; experiment: Binding affinity to chloride anions assessed as transport of chloride anions across bulky nitrobenzene membrane in U-shaped tube harboring NaCl in donor phase and NaNO3 in receiving phase at 1 mM measured for 12 hrs by chloride ion selective electrode technique
[4] = system: Chloride; experiment: Binding affinity to chloride anions in human HeLa cells assessed as increase in green fluorescence in cytoplasm at 5 uM incubated for 6 hrs by AO staining based analysis; type: cell-based
[5] = system: Chloride; experiment: Binding affinity to chloride anions in human HeLa cells assessed as chloride influx up to 5 uM incubated for 2 hrs by MQAE staining based analysis; type: cell-based
[6] = system: Chloride; experiment: Binding affinity to chloride anions in human HeLa cells assessed as increase in chloride influx at 1 uM measured after 15 mins by flow cytometry; type: cell-based
[7] = system: Chloride; experiment: Binding affinity to chloride anions in human HeLa cells assessed as increase in chloride influx at 1 uM measured after 30 to 60 mins by inverted fluorescence microscopy; type: cell-based; conditions: time 30-60 min
[8] = system: HeLa; experiment: Cytotoxicity against human HeLa cells incubated for 48 hrs by MTT assay; type: functional, cell-based
[9] = system: A549; experiment: Cytotoxicity against human A549 cells incubated for 48 hrs by MTT assay; type: functional, cell-based; conditions: A549, 48 h
[10] = system: MCF7; experiment: Cytotoxicity against human MCF7 cells incubated for 48 hrs by MTT assay; type: functional, cell-based; conditions: MCF7, 48 h
[11] = system: HepG2; experiment: Cytotoxicity against human HepG2 cells incubated for 48 hrs by MTT assay; type: functional, cell-based; conditions: HepG2, 48 h
[12] = system: HeLa; experiment: Cytotoxicity against human HeLa cells assessed as decrease in ratio of green to red fluorescence at 0.1 to 1 uM incubated for 24 hrs by calcein-AM/7-AAD staining based analysis; type: functional, cell-based; conditions: dose 0.1-1 µM
[13] = system: HeLa; experiment: Effect on p53 pathway in human HeLa cells at 10 uM incubated for 48 hrs by KEGG analysis; type: functional, cell-based
[14] = system: HeLa; experiment: Cytotoxicity against human HeLa cells assessed as decrease in cell viability at 0.01 to 10 uM pretreated with Fer-1 followed by compound addition by MTT assay; type: functional, cell-based; conditions: dose 0.01-10 µM
[15] = system: HeLa; experiment: Cytotoxicity against human HeLa cells assessed as decrease in cell viability at 0.01 to 10 uM pretreated with Nec-1 followed by compound addition by MTT assay; type: functional, cell-based; conditions: dose 0.01-10 µM
[16] = biological target: Tubulin (Homo sapiens) (UniProt P68371+Q9H4B7+P0DPH7+P68366+Q13509+Q71U36+P04350+Q3ZCM7+P07437+P68363+Q9BQE3+Q6PEY2+Q13885+Q9BVA1+Q9BUF5); experiment: Induction of tubulin degradation in human HeLa cells assessed as disruption of tubulin network at 10 uM incubated for 16 hrs by immunofluorescence based analysis; type: cell-based
[17] = system: HeLa; experiment: Induction of mitochondrial membrane permeability in human HeLa cells assessed as red fluorescence at 0.5 uM incubated for 24 hrs by JC-1 staining based analysis (reference value: 98.5 %); type: functional
[18] = system: HeLa; experiment: Induction of mitochondrial membrane permeability in human HeLa cells assessed as green fluorescence at 1 uM incubated for 24 hrs by JC-1 staining based analysis (reference value: 1.5 %); type: functional
[19] = system: HeLa; experiment: Induction of lipid peroxidation in human HeLa cells assessed as increase in Fe2+ level incubated for 12 hrs by absorbance based assay; type: functional, cell-based; conditions: dose 0.1-1 µM
[20] = system: HeLa; experiment: Induction of lipid peroxidation in human HeLa cells assessed as increase in ROS generation incubated for 24 hrs by flow cytometry; type: functional, cell-based; conditions: dose 0.1-1 µM
[21] = system: HeLa; experiment: Induction of ferroptosis in human HeLa cells assessed as increase in Bax level at 0.1 to 1 uM incubated for 24 hrs by immunoblotting analysis; type: functional, cell-based; conditions: dose 0.1-1 µM
[22] = system: HeLa; experiment: Induction of ferroptosis in human HeLa cells assessed as decrease in Bcl-2 level at 0.1 to 1 uM incubated for 24 hrs by immunoblotting analysis; type: functional, cell-based; conditions: dose 0.1-1 µM
[23] = system: HeLa; experiment: Induction of cell cycle arrest in human HeLa cells assessed as accumulation of cells at S phase at 0.1 uM incubated for 24 hrs by PI staining based flow cytometry relative to control; type: functional
[24] = Aqueous solubility of compound; type: physicochemical
[25] = AUC (0 to t) in male CD-1 mouse at 1 mg/kg, iv measured for 0.083 to 48 hrs by HPLC/MS/MS analysis; type: ADME, organism-based; conditions: in vivo, time 0.083-48 hrs
[26] = AUC (0 to infinity) in male CD-1 mouse at 1 mg/kg, iv measured for 0.083 to 48 hrs by HPLC/MS/MS analysis; type: ADME, organism-based; conditions: in vivo, time 0.083-48 hrs
[27] = AUC (0 to infinity) in male CD-1 mouse at 1 mg/kg, ip measured for 0.083 to 48 hrs by HPLC/MS/MS analysis; type: ADME, organism-based; conditions: in vivo, time 0.083-48 hrs
[28] = Tmax in male CD-1 mouse at 1 mg/kg, ip measured for 0.083 to 48 hrs by HPLC/MS/MS analysis; type: ADME, organism-based; conditions: in vivo, time 0.083-48 hrs
[29] = Cmax in male CD-1 mouse at 1 mg/kg, ip measured for 0.083 to 48 hrs by HPLC/MS/MS analysis; type: ADME, organism-based; conditions: in vivo, time 0.083-48 hrs
[30] = Oral bioavailability in male CD-1 mouse at 1 mg/kg measured for 0.083 to 48 hrs by HPLC/MS/MS analysis; type: ADME, organism-based; conditions: in vivo, time 0.083-48 hrs
[31] = system: HeLa; experiment: Antitumor activity against human HeLa cells xenografted in male Balb/C nude mouse assessed as average tumor size at 20 mg/kg, ip administered on every 2 days measured after 18 days (reference value: 1995.1 mm3); type: functional; conditions: time 18 day
[32] = system: HeLa; experiment: Antitumor activity against human HeLa cells xenografted in male Balb/C nude mouse assessed as reduction in tumor weight at 10 mg/kg, ip administered on every 2 days measured after 18 days relative to control; type: functional; set-up: scale not given: the % may be the effect or the level left; conditions: time 18 day
[33] = system: HeLa; experiment: Antitumor activity against human HeLa cells xenografted in male Balb/C nude mouse assessed as reduction in tumor weight at 20 mg/kg, ip administered on every 2 days measured after 18 days relative to control; type: functional; set-up: scale not given: the % may be the effect or the level left; conditions: time 18 day
[34] = system: HeLa; experiment: Antitumor activity against human HeLa cells xenografted in male Balb/C nude mouse assessed as cell death at 10 to 20 mg/kg, ip administered on every 2 days measured after 18 days by TUNEL immunofluorescence analysis; type: functional, organism-based; conditions: dose 10-20 mg/kg, time 18.0 day
[35] = Toxicity in male Balb/C nude mouse xenografted with human HeLa cells assessed as abnormalities in heart at 10 to 20 mg/kg, ip administered on every 2 days measured after 18 days by H and E staining based analysis; type: organism-based; conditions: in vivo, 432 h, dose 10-20 mg/kg, time 18 day
[36] = Toxicity in male Balb/C nude mouse xenografted with human HeLa cells assessed as abnormalities in spleen at 10 to 20 mg/kg, ip administered on every 2 days measured after 18 days by H and E staining based analysis; type: organism-based; conditions: in vivo, 432 h, dose 10-20 mg/kg, time 18 day
[37] = Toxicity in male Balb/C nude mouse xenografted with human HeLa cells assessed as abnormalities in kidney at 10 to 20 mg/kg, ip administered on every 2 days measured after 18 days by H and E staining based analysis; type: organism-based; conditions: in vivo, 432 h, dose 10-20 mg/kg, time 18 day

Compound: Fc1cc(-c2nc3c(C(F)(F)F)cc(C(F)(F)F)cc3[nH]2)cc(-c2nc3c(C(F)(F)F)cc(C(F)(F)F)cc3[nH]2)c1
- Activity [1]: Active
- Activity [2]: Active
- Activity [3]: Active
- Activity [4]: Active; The Result Indicates That Compound Basify Acidic Organelles
- Activity [5]: Active
- Activity [6]: inactive
- Activity [7]: Active
- IC50 [8]: 120 nM
- IC50 [9]: 1680 nM
- IC50 [10]: 770 nM
- IC50 [11]: 2470 nM
- Activity [12]: Active
- Activity [13]: Active
- Activity [14]: inactive
- Activity [15]: Active
- Activity [16]: Active
- Activity [17]: 55.1%
- Activity [18]: 66.8%
- Activity [19]: Dose-dependent-effect
- Activity [20]: Dose-dependent-effect
- Activity [21]: Active
- Activity [22]: Active
- Activity [23]: 22%
- solubility [24]: 200 µg/mL (≈ 333 µM)
- AUC(0-t) [25]: 17500 ng·h/mL
- AUC(0-inf) [26]: 17800 ng·h/mL
- AUC(0-inf) [27]: 4610 ng·h/mL
- Tmax [28]: 3.5 h
- Cmax [29]: 270 ng/mL
- bioavailability [30]: 22%
- Activity [31]: 626.1 mm3
- Activity [32]: 57%
- Activity [33]: 69%
- Activity [34]: Active
- Activity [35]: Non-toxic
- Activity [36]: Non-toxic
- Activity [37]: Non-toxic
